From ChEMBL document CHEMBL5131499, “Design, synthesis and glycosidase inhibition of C-4 branched LAB and DAB derivatives” (Eur J Med Chem, 2022)

Columns and labels:
Sus scrofa = species: Sus scrofa; assay: Inhibition of porcine kidney alpha-trehalase assessed as release of p-nitrophenol at 1000 uM using p-nitrophenyl glycoside as substrate by spectrometric assay relative to control
Rattus norvegicus = species: Rattus norvegicus; assay: Inhibition of rat intestinal alpha-trehalase assessed as release of p-nitrophenol at 1000 uM using p-nitrophenyl glycoside as substrate by spectrometric assay relative to control
[1] = biological target: Sucrase-isomaltase, intestinal (Rattus norvegicus, UniProt P23739); assay: Inhibition of rat intestinal sucrase assessed as release of p-nitrophenol using p-nitrophenyl glycoside as substrate by spectrometric assay
Sequence of Sucrase-isomaltase, intestinal (P23739 1-1013 limits assumed): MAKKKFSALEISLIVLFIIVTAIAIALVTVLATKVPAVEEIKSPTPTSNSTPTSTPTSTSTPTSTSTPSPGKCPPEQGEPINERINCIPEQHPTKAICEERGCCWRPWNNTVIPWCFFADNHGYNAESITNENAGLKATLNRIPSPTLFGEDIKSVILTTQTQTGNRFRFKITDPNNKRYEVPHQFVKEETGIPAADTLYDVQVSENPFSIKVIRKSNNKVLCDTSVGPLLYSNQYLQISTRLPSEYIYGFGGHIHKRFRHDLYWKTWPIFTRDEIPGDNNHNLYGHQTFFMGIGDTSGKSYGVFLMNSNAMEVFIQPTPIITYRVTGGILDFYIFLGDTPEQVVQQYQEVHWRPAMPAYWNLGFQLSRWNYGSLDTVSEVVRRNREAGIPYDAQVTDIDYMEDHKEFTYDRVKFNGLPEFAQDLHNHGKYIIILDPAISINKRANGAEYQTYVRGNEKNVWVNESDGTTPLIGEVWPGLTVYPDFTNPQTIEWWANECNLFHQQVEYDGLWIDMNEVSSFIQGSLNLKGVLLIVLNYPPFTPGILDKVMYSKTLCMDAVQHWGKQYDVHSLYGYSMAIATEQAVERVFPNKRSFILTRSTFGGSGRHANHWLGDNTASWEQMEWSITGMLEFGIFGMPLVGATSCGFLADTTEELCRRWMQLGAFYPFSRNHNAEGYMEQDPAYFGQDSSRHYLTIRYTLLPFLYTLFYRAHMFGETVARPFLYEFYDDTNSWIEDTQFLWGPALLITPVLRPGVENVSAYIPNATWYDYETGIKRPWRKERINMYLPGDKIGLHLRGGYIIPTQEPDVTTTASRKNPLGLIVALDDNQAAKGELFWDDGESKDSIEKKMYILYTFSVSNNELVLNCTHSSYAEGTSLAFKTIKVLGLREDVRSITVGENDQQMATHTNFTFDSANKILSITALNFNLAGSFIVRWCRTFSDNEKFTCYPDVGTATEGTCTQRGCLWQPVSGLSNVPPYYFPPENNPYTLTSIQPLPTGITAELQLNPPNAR
Sequence of Sucrase-isomaltase, intestinal (P23739 1014-1841 limits assumed): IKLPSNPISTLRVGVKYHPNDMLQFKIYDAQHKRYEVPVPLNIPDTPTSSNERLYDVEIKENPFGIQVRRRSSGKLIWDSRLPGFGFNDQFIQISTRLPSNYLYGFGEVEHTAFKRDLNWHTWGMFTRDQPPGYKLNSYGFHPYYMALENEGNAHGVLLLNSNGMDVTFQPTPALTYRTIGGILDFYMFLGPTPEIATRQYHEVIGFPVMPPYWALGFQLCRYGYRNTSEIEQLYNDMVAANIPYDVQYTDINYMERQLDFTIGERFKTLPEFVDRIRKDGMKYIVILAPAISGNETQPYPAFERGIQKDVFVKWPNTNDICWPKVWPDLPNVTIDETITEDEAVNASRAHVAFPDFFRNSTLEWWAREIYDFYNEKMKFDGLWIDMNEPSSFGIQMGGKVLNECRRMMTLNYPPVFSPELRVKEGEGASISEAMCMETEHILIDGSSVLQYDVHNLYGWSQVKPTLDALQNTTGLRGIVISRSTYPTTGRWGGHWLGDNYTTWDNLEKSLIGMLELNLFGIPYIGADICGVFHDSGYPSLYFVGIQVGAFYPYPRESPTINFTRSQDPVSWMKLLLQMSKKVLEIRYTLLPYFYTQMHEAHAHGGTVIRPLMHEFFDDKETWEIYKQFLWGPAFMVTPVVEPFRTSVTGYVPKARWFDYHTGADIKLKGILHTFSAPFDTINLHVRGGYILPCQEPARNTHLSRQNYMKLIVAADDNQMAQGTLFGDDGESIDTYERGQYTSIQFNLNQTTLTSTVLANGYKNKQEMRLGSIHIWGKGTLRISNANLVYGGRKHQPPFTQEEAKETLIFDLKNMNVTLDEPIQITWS

Prunus dulcis = assay: Inhibition of almond beta-glucosidase assessed as release of p-nitrophenol at 1000 uM using p-nitrophenyl glycoside as substrate by spectrometric assay relative to control
[2] = Inhibition of yeast alpha-glucosidase assessed as release of p-nitrophenol using p-nitrophenyl glycoside as substrate by spectrometric assay; parameters: species or system Saccharomyces cerevisiae
Oryza sativa = assay: Inhibition of rice alpha-glucosidase assessed as release of p-nitrophenol at 1000 uM using p-nitrophenyl glycoside as substrate by spectrometric assay relative to control
[3] = biological target: T1, Lysosomal alpha-glucosidase (Homo sapiens, UniProt P10253); assay: Inhibition of human lysosomal alpha glucosidase assessed as release of p-nitrophenol at 1000 uM using p-nitrophenyl glycoside as substrate by spectrometric assay relative to control
Bos taurus [4] = species: Bos taurus; assay: Inhibition of bovine liver beta-glucosidase assessed as release of p-nitrophenol at 1000 uM using p-nitrophenyl glycoside as substrate by spectrometric assay relative to control
[5] = biological target: Alpha-galactosidase (Coffea arabica) (UniProt Q42656); assay: Inhibition of coffee beans alpha-galactosidase assessed as release of p-nitrophenol at 1000 uM using p-nitrophenyl glycoside as substrate by spectrometric assay relative to control
Sequence of Alpha-galactosidase (Coffea arabica) (Q42656 16-378 limits assumed): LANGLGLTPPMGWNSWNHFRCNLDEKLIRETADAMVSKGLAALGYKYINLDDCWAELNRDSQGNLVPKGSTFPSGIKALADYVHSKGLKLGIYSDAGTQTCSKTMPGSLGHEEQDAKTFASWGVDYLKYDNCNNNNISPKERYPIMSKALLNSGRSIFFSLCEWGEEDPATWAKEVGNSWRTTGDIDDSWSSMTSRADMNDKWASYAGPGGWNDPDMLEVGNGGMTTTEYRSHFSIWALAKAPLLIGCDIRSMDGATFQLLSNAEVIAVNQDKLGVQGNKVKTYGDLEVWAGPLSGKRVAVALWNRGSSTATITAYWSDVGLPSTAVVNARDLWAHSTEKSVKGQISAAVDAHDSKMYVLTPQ

Bos taurus [6] = species: Bos taurus; assay: Inhibition of bovine liver beta-galactosidase assessed as release of p-nitrophenol at 1000 uM using p-nitrophenyl glycoside as substrate by spectrometric assay relative to control
[7] = biological target: T2, Alpha-mannosidase (Canavalia ensiformis) (UniProt C0HJB3); assay: Inhibition of jack bean alpha-mannosidase assessed as release of p-nitrophenol at 1000 uM using p-nitrophenyl glycoside as substrate by spectrometric assay relative to control
T2 sequence (whole entry): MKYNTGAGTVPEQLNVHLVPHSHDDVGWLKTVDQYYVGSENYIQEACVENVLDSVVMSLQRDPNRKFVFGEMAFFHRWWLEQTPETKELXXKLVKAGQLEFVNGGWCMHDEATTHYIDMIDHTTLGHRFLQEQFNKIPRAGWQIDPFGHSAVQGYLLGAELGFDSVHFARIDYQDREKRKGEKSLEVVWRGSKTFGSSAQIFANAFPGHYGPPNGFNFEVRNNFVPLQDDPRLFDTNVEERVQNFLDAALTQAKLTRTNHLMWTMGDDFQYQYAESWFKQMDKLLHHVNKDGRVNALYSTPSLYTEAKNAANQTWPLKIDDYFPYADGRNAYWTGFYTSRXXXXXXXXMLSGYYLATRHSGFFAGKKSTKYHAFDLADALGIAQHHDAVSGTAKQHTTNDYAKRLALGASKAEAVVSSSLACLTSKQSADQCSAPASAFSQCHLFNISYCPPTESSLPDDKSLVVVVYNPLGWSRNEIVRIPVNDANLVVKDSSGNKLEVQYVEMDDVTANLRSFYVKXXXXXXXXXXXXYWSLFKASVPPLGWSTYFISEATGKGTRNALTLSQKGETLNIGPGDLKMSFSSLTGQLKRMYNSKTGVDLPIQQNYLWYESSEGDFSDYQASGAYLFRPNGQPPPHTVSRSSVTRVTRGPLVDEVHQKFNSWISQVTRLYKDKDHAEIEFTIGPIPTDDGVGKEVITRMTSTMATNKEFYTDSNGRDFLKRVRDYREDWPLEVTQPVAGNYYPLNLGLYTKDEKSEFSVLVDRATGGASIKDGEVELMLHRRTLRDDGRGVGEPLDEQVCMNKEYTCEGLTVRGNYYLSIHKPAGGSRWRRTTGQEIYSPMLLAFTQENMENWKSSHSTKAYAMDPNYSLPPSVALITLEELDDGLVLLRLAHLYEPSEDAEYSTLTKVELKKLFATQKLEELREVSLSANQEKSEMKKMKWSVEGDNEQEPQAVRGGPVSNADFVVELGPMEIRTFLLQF

Helix pomatia = assay: Inhibition of snail beta-mannosidase assessed as release of p-nitrophenol at 1000 uM using p-nitrophenyl glycoside as substrate by spectrometric assay relative control
[8] = biological target: T3, Tissue alpha-L-fucosidase (Bos taurus) (UniProt Q2KIM0); assay: Inhibition of bovine kidney alpha-L-fucosidase assessed as release of p-nitrophenol at 1000 uM using p-nitrophenyl glycoside as substrate by spectrometric assay relative to control
T3 sequence (whole entry): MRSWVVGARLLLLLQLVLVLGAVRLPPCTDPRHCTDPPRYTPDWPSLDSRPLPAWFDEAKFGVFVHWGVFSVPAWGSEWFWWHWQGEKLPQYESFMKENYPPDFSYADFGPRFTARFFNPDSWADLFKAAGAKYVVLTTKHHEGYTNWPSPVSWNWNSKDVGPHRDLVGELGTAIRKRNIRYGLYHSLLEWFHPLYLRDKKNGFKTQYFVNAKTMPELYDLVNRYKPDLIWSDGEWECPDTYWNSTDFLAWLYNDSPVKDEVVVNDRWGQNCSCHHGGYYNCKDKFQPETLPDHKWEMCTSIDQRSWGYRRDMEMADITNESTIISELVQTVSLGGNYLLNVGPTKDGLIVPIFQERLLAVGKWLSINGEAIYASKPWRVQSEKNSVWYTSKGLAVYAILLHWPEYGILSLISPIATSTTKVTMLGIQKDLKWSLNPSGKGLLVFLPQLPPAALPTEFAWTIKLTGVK

Aspergillus niger = assay: Inhibition of Aspergillus niger amyloglucosidase assessed as release of p-nitrophenol at 1000 uM using p-nitrophenyl glycoside as substrate by spectrometric assay relative to control
Penicillium decumbens = assay: Inhibition of Penicillium decumbens alpha-L-rhamnosidase assessed as release of p-nitrophenol at 1000 uM using p-nitrophenyl glycoside as substrate by spectrometric assay relative to control
Escherichia coli = assay: Inhibition of Escherichia coli beta-glucuronidase assessed as release of p-nitrophenol at 1000 uM using p-nitrophenyl glycoside as substrate by spectrometric assay relative to control
Bos taurus [9] = species: Bos taurus; assay: Inhibition of bovine liver beta-glucronidase assessed as release of p-nitrophenol at 1000 uM using p-nitrophenyl glycoside as substrate by spectrometric assay relative to control
[10] = biological target: T1, Lysosomal alpha-glucosidase; assay: Inhibition of human lysosomal alpha glucosidase assessed as release of p-nitrophenol using p-nitrophenyl glycoside as substrate by spectrometric assay
[11] = Inhibition of rice alpha-glucosidase assessed as release of p-nitrophenol using p-nitrophenyl glycoside as substrate by spectrometric assay; parameters: species or system Oryza sativa

| inhibition (Sus scrofa) | inhibition (Rattus norvegicus) | IC50 [1] | inhibition (Prunus dulcis) | IC50 [2] | inhibition (Oryza sativa) | inhibition [3] | inhibition (Bos taurus [4]) | inhibition [5] | inhibition (Bos taurus [6]) | inhibition [7] | inhibition (Helix pomatia) | inhibition [8] | inhibition (Aspergillus niger) | inhibition (Penicillium decumbens) | inhibition (Escherichia coli) | inhibition (Bos taurus [9]) | IC50 [10] | IC50 [11] | Compound |
| --- | --- | --- | --- | --- | --- | --- | --- | --- | --- | --- | --- | --- | --- | --- | --- | --- | --- | --- | --- |
| 0.8% | 0% | 4.1 µM | 0% | 243 µM | 11.4% | 11.1% | 22.2% | 0% | 24.3% | 0% | 0% | 0% | 0.5% | 0% | 0% | 17.5% |  |  | COc1ccc([C@]2(CO)NC[C@@H](O)[C@@H]2O)cc1OC |
| 0% | 14.1% | 2.5 µM | 5.2% | 388 µM | 19.5% | 18.5% | 33% | 0% | 38.1% | 0% | 0% | 3.8% | 7.8% | 0% | 0% | 18.4% |  |  | OC[C@@]1(c2c(F)c(F)c(F)c(F)c2F)NC[C@@H](O)[C@@H]1O |
| 12.9% | 1.2% | 0.18 µM | 14.8% | 12 µM |  |  | 27.6% | 3.6% | 40.3% | 3.4% | 0% | 0% | 11.5% | 4.5% | 1.8% | 12.6% | 376 µM | 285 µM | OC[C@]1(c2ccc(O)cc2)NC[C@H](O)[C@H]1O |
| 0% | 0% | 2.5 µM | 0% | 64 µM | 32.3% | 27.1% | 15.8% | 0% | 19% | 0% | 0% | 0.5% | 6.4% | 0% | 0% | 23.3% |  |  | COc1ccc([C@@]2(CO)NC[C@H](O)[C@H]2O)cc1OC |
| 12.9% | 0% | 1.7 µM | 7.8% | 9.8 µM |  |  | 30% | 1.6% | 38.9% | 0% | 0% | 0% | 8.3% | 0% | 0% | 10.7% | 776 µM | 758 µM | COc1cccc([C@]2(CO)NC[C@@H](O)[C@@H]2O)c1 |
| 0% | 12.9% | 3.4 µM | 8.7% | 212 µM | 29.1% | 21.3% | 29.1% | 1.6% | 35% | 0% | 0% | 0% | 8.3% | 7.4% | 0% | 8.7% |  |  | Cc1ccc([C@]2(CO)NC[C@@H](O)[C@@H]2O)cc1 |
| 4.4% | 25.8% | 0.2 µM | 0.6% | 70 µM |  |  | 8.4% | 0% | 8.6% | 6.6% | 0.8% | 0% | 0% | 0% | 1.5% | 16.8% | 714 µM | 646 µM | OC[C@@]1(c2ccc(F)cc2)NC[C@@H](O)[C@@H]1O |
| 3.8% | 0.6% | 2.2 µM | 1.7% | 19 µM | 47.3% | 46% | 12.8% | 1.6% | 26.5% | 0% | 0% | 1.6% | 5% | 5.5% | 0% | 8.2% |  |  | COc1cccc([C@@]2(CO)NC[C@H](O)[C@H]2O)c1 |
| 4% | 27% | 2.8 µM | 4.6% | 305 µM | 6.4% | 8.3% | 0.4% | 0% | 0% | 6.6% | 0% | 0% | 0% | 0% | 3% | 10.9% |  |  | OC[C@]1(c2ccc(F)cc2)NC[C@H](O)[C@H]1O |
| 8.3% | 10% | 0.95 µM | 0% | 60 µM |  |  | 11.3% |  | 16.4% | 0% | 0% | 0% | 1.4% | 0% | 0% | 19.4% | 491 µM | 817 µM | OC[C@]1(c2cccc(F)c2)NC[C@H](O)[C@H]1O |
| 2% | 40.2% | 4.1 µM | 4.6% | 528 µM | 0% | 6.9% | 3.8% |  | 3.7% | 6.6% | 0% | 0% | 4.4% | 2% | 2.6% | 3.6% |  |  | OC[C@]1(c2c(F)c(F)c(F)c(F)c2F)NC[C@H](O)[C@H]1O |
|  |  |  | < 50% |  |  |  | < 50% |  |  |  |  |  |  |  |  |  |  |  | OC[C@@H]1NC[C@H](O)[C@H]1O |
